# Legend:
# [1] = system: human lung cancer cells (A549); experiment: MTT antiproliferative assay, A549; assay type: cell-based; details: Homo sapiens, A549, 72 h
# Protocol: (§1) Human lung cancer cell (A549,), human umbilical vein endothelial cells (HUVECs,), human colon cancer cell lines (HCT-15), human breast cancer cells (MCF-7), human liver cancer cells (HepG2), human pancreatic cancer cells (BxPC-3), and human hepatic cell line (L-02) were obtained from the Sichuan University. A549, HUVECs, and L-02 were cultured in DMEM medium (high glucose, HyClone, GE Healthcare, Sydney, Australia). Human colon cancer cell lines HCT-15, human pancreatic cancer cells […] BxPC-3 were cultured in RPMI-1640. Human breast cancer cells MCF-7 and human liver cancer cells HepG2 were cultured in MEM medium. All the mediums, including 10% fetal bovine serum (FBS, HyClone, GE Healthcare, Sydney, Australia) and 1% ampicillin/streptomycin, were used to culture the above cells at 37 °C in a humidified atmosphere (5% CO2 and 95% air).
# (§2) The antiproliferative activity of the title compounds was determined using the MTT (3-(4,5-dimethylthiazol-2-yl)-2,5-diphenyltetrazolium bromide, Sigma-Aldrich, Saint Louis, MO, USA) assay on different cells. Cells lines were seeded into 96-well plates at a density of 2000 to 6000 cells/well. DMSO was used to dissolve the test compounds, and TET was used as a positive control. After 24 h, the test compounds were added at different concentrations (0.625, 1.25, 2.5, 5, 10, and 20 μM) and incubated at 37 °C for 72 h. MTT was added to each well at a final concentration of 0.5 mg/mL and incubated at 37 °C for 4 h. Then, 150 μL of DMSO was added to each well to dissolve the formazan crystals. The absorbance was measured at 570 nm by a microplate reader (ELX800UV, Bio-Tek, Windoski, VT, USA). All measurements were repeated at least three times under the same conditions. Graphpad Prism 8.0 was used to calculate the IC50 values.
# [2] = system: human colon cancer cells (HCT-15); experiment: MTT antiproliferative assay, HCT-15; assay type: cell-based; details: for IC50: Homo sapiens, MTT, 72 h, HCT-15; for Improvement of antiproliferative activity compared with TET: HCT-15 cells, vs TET (IC50 = 6.12 μM)
# Protocol: as §1, §2
# [3] = system: human liver cancer cells (HepG2); experiment: MTT antiproliferative assay, HepG2; assay type: cell-based; details: Homo sapiens, HepG2, 72 h
# Protocol: as §1, §2
# [4] = system: human pancreatic cancer cells (BxPC-3); experiment: MTT antiproliferative assay, BxPC-3; assay type: cell-based; details: Homo sapiens, BXPC-3, 72 h
# Protocol: as §1, §2
# [5] = system: human breast cancer cells (MCF-7); experiment: MTT antiproliferative assay, MCF-7; assay type: cell-based; details: Homo sapiens, MCF7, 72 h
# Protocol: as §1, §2
# [6] = system: human umbilical vein endothelial cells (HUVEC); experiment: MTT antiproliferative assay, HUVEC; assay type: cell-based; details: 72 h
# Protocol: as §1, §2
# [7] = system: human normal hepatocyte cells (L-02); experiment: MTT toxicity assay, normal hepatocytes L-02; assay type: cell-based; details: 72 h, normal hepatocyte L-02 (toxicity), read-out: Antiproliferative Activity (IC50/μM) L-02
# Protocol: as §1, §2
# [8] = Aqueous solubility determination by HPLC; assay type: physicochemical; details: neutral water
# Protocol: Briefly, each tested compound (10 mg) was dissolved in 10 mL of CH3OH, and the standard solution (0.5 mL) was used to determine the wavelength of maximum absorbance by HPLC. The solution was diluted as necessary, and the solubility was determined by linear regression with R^2 > 0.999. Each tested compound (5 mg) was ultrasound dissolved in 3 mL of pure water for 1 h at room temperature, and the mixture was then […] at 3000 rpm for 15 min. The saturated supernatants were determined by HPLC at the wavelength of the maximum absorption, and the absorbances were obtained. The solubility was calculated according to the standard curve.
# HCT-15 cells = experiment: Flow cytometry Annexin V-FITC/PI apoptosis analysis; assay type: cell-based, human; details: HCT-15, TET treatment groups (1.25, 2.5, 5 μM), 48 h
# Protocol: HCT-15 cells were cultured in complete medium in six-well plates for 24 h, and […]. 2.5, 5 μM of 16 was added in triplicate for 48 h incubation. The cells were digested with trypsin without EDTA, washed twice with cold PBS, and resuspended in 500 μL binding buffer. The cell suspension was stained successively with 5 μL Annexin V-FITC and 5 μL PI (Keygen Biotech, Nanjing, China), and cultured for 15 min and 5 min in total dark, respectively. Afterwards, the percentages of apoptotic cells were determined by a flow cytometry. Data were analyzed by FlowJo software (Version 10, FlowJo, LLC, Ashland, OR, USA).
IC50 [1] [µM],IC50 [2] [µM],IC50 [3] [µM],IC50 [4] [µM],IC50 [5] [µM],Increase of aqueous solubility compared to TET ([8]; vs TET),Compound,IC50 [6] [µM],IC50 [7] [µM],Improvement of antiproliferative activity compared with TET [2],"solubility at 1 h ([8]; pure water, thermodynamic from solid, room temperature, HPLC) [µg/mL]",Percentage of apoptotic cells (HCT-15 cells)
6.81 ± 1.1,5.28 ± 0.37,3.57 ± 0.67,5.6 ± 0.38,10.2 ± 0.4,,"COc1cc(NC(=O)[C@@H](N)[C@@H](C)O)c2cc1Oc1ccc(cc1)C[C@H]1c3cc(c(OC)cc3CCN1C)Oc1c(OC)c(OC)cc3c1[C@H](C2)N(C)CC3 [Compound 18, 14-N-(L-threonine)-tetrandrine]",3.25 ± 0.69,> 20,,,
6.11 ± 0.91,4.02 ± 0.15,3.26 ± 0.05,4.95 ± 0.29,7.96 ± 1.08,,"COc1cc(NC(=O)[C@@H](N)C(C)C)c2cc1Oc1ccc(cc1)C[C@H]1c3cc(c(OC)cc3CCN1C)Oc1c(OC)c(OC)cc3c1[C@H](C2)N(C)CC3 [Compound 14, 14-N-(L-valine)-tetrandrine]",2.48 ± 0.15,14.5 ± 0.37,,,
2.15 ± 0.17,2.42 ± 0.06,1.94 ± 0.27,2.55 ± 0.03,2.91 ± 0.17,approximately 16 fold,"COc1cc(NC(=O)CNC(=O)OC(C)(C)C)c2cc1Oc1ccc(cc1)C[C@H]1c3cc(c(OC)cc3CCN1C)Oc1c(OC)c(OC)cc3c1[C@H](C2)N(C)CC3 [Compound 3, 14-N-(Boc-L-glycine)-tetrandrine]",1.68 ± 0.21,8.59 ± 0.13,about 2 fold,,
2.67 ± 0.14,3.39 ± 0.07,1.71 ± 0.46,1.75 ± 0.13,3.31 ± 0.01,,COc1cc(NC(=O)[C@H](N)Cc2ccccc2)c2cc1Oc1ccc(cc1)C[C@H]1c3cc(c(OC)cc3CCN1C)Oc1c(OC)c(OC)cc3c1[C@H](C2)N(C)CC3 [Compound 19],1.92 ± 0.17,9.02 ± 0.26,,,
1.96 ± 0.24,0.91 ± 0.05,1.54 ± 0.02,2.31 ± 0.08,2.59 ± 0.11,,COc1cc(NC(=O)[C@@H](Cc2ccccc2)NC(=O)OC(C)(C)C)c2cc1Oc1ccc(cc1)C[C@H]1c3cc(c(OC)cc3CCN1C)Oc1c(OC)c(OC)cc3c1[C@H](C2)N(C)CC3 [Compound 10],1.8 ± 0.02,15.54 ± 0.11,more than 6 fold,,
5.54 ± 0.16,3.89 ± 0.47,3.11 ± 0.68,6.39 ± 0.2,4.99 ± 0.66,,COc1cc(NC(=O)[C@H](CC(C)C)NC(=O)OC(C)(C)C)c2cc1Oc1ccc(cc1)C[C@H]1c3cc(c(OC)cc3CCN1C)Oc1c(OC)c(OC)cc3c1[C@H](C2)N(C)CC3 [Compound 6],2.09 ± 0.19,13.58 ± 0.13,,,
7.44 ± 1.02,3.94 ± 0.37,3.13 ± 0.7,3.67 ± 0.19,7.53 ± 0.11,,"COc1cc(NC(=O)[C@@H](N)CO)c2cc1Oc1ccc(cc1)C[C@H]1c3cc(c(OC)cc3CCN1C)Oc1c(OC)c(OC)cc3c1[C@H](C2)N(C)CC3 [Compound 17, 14-N-(L-serine)-tetrandrine]",2.88 ± 0.26,> 20,,,
7.24 ± 0.41,4.31 ± 0.09,3.54 ± 0.3,4.63 ± 0.09,7.4 ± 0.31,,COc1cc(NC(=O)[C@@H](NC(=O)OC(C)(C)C)C(C)C)c2cc1Oc1ccc(cc1)C[C@H]1c3cc(c(OC)cc3CCN1C)Oc1c(OC)c(OC)cc3c1[C@H](C2)N(C)CC3 [Compound 5],3.04 ± 0.34,> 20,,,
4.94 ± 0.45,3.54 ± 0.36,3.19 ± 0.76,3.98 ± 0.16,6.91 ± 0.66,,"COc1cc(NC(=O)CN)c2cc1Oc1ccc(cc1)C[C@H]1c3cc(c(OC)cc3CCN1C)Oc1c(OC)c(OC)cc3c1[C@H](C2)N(C)CC3 [Compound 12, 14-N-(L-glycine)-tetrandrine]",3.19 ± 0.61,> 20,,,
5.92 ± 0.73,2.71 ± 0.22,3.66 ± 0.82,4.55 ± 0.27,6.74 ± 0.16,,"COc1cc(NC(=O)[C@@H](N)CC(C)C)c2cc1Oc1ccc(cc1)C[C@H]1c3cc(c(OC)cc3CCN1C)Oc1c(OC)c(OC)cc3c1[C@H](C2)N(C)CC3 [Compound 15, 14-N-(L-leucine)-tetrandrine]",3.09 ± 0.36,12.08 ± 0.04,,,
6.4 ± 0.36,1.15 ± 0.17,3.5 ± 1.37,3.1 ± 0.26,5.71 ± 0.29,,"COc1cc(NC(=O)[C@H]2CCCN2C(=O)OC(C)(C)C)c2cc1Oc1ccc(cc1)C[C@H]1c3cc(c(OC)cc3CCN1C)Oc1c(OC)c(OC)cc3c1[C@H](C2)N(C)CC3 [Compound 7, 14-N-(Boc-L-proline)-tetrandrine]",3.49 ± 0.31,17.5 ± 0.21,,,
12.3 ± 0.61,8.57 ± 0.57,6.97 ± 0.34,13.1 ± 0.37,11.3 ± 0.55,,COc1cc(NC(=O)[C@@H](NC(=O)OC(C)(C)C)[C@@H](C)O)c2cc1Oc1ccc(cc1)C[C@H]1c3cc(c(OC)cc3CCN1C)Oc1c(OC)c(OC)cc3c1[C@H](C2)N(C)CC3 [Compound 9],4.91 ± 1.05,> 20,,,
8.12 ± 0.43,4.69 ± 0.47,3.27 ± 1,6.95 ± 0.57,11.1 ± 0.26,,COc1cc(NC(=O)[C@H](C)N)c2cc1Oc1ccc(cc1)C[C@H]1c3cc(c(OC)cc3CCN1C)Oc1c(OC)c(OC)cc3c1[C@H](C2)N(C)CC3 [Compound 13],2.2 ± 0.37,> 20,,,
7.45 ± 0.32,5.87 ± 0.3,3.76 ± 1.34,3.55 ± 0.32,5.84 ± 0.25,,"COc1cc(NC(=O)[C@H](CO)NC(=O)OC(C)(C)C)c2cc1Oc1ccc(cc1)C[C@H]1c3cc(c(OC)cc3CCN1C)Oc1c(OC)c(OC)cc3c1[C@H](C2)N(C)CC3 [Compound 8, 14-N-(Boc-L-serine)-tetrandrine]",3.96 ± 0.36,> 20,,,
7.44 ± 1.11,3.28 ± 0.32,3.9 ± 0.62,4.74 ± 0.37,5.78 ± 0.35,,COc1cc(NC(=O)[C@H](C)NC(=O)OC(C)(C)C)c2cc1Oc1ccc(cc1)C[C@H]1c3cc(c(OC)cc3CCN1C)Oc1c(OC)c(OC)cc3c1[C@H](C2)N(C)CC3 [Compound 4],4.01 ± 0.41,> 20,,,
6.26 ± 0.41,3.56 ± 0.27,2.81 ± 0.35,3.58 ± 0.15,5.03 ± 0.04,,"COc1cc(NC(=O)[C@H](Cc2ccc(O)cc2)NC(=O)OC(C)(C)C)c2cc1Oc1ccc(cc1)C[C@H]1c3cc(c(OC)cc3CCN1C)Oc1c(OC)c(OC)cc3c1[C@H](C2)N(C)CC3 [Compound 11, 14-N-(Boc-L-tyrosine)-tetrandrine]",2.16 ± 0.32,11.8 ± 0.61,,,
4.12 ± 0.27,3.33 ± 0.08,1.44 ± 0.18,2.36 ± 0.15,3.7 ± 0.91,,"COc1cc(NC(=O)[C@@H](N)Cc2ccc(O)cc2)c2cc1Oc1ccc(cc1)C[C@H]1c3cc(c(OC)cc3CCN1C)Oc1c(OC)c(OC)cc3c1[C@H](C2)N(C)CC3 [Compound 20, 14-N-(L-tyrosine)-tetrandrine]",1.91 ± 0.09,10 ± 1.28,,,

Compound,IC50 [1] [µM],IC50 [2] [µM],IC50 [3] [µM],IC50 [4] [µM],IC50 [5] [µM],Increase of aqueous solubility compared to TET ([8]; vs TET),IC50 [6] [µM],IC50 [7] [µM],Improvement of antiproliferative activity compared with TET [2],"solubility at 1 h ([8]; pure water, thermodynamic from solid, room temperature, HPLC) [µg/mL]",Percentage of apoptotic cells (HCT-15 cells)
"COc1ccc2cc1Oc1ccc(cc1)C[C@H]1c3cc(c(OC)cc3CCN1C)Oc1c(OC)c(OC)cc3c1[C@H](C2)N(C)CC3 [TET, tetrandrine]",6.39 ± 0.83,6.12 ± 0.51,3.25 ± 0.11,7.6 ± 0.16,3.9 ± 0.47,,3.62 ± 0.02,16 ± 1.18,,< 30,lower than 14%
